The text below walks through data of patent US11414431B2, “Substituted pyrazolo[1,5-a]pyrimidines as TYK2 inhibitors” (Nimbus Lakshmi, Inc., priority 2018, dated 2022).

Assay [1] deals with human TYK2 (JH2domain-pseudokinase) (Homo sapiens (Human), UniProt P29597). Nature of the assay: TYK2 JH2 Domain Binding Assay (KINOMEscan). The following applies: 11-point 3-fold dilution, top concentration 30,000 nM, duplicate; read-out: hTYK2_JH2_Binding (Kd; nM). The method in brief:
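KINOMEscan competition binding: HEK293-expressed NFkB-fused TYK2 JH2 (G556–D888), DNA-tagged, against immobilized ligand beads, 1 h shaking at room temperature, 0.9% DMSO. Bound kinase quantified by qPCR.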

Assay [2] concerns the target TYK2 (Homo sapiens (Human), UniProt P29597). The assay can be described thus: TYK2 Radioactive Kinase Assay. The class given is biochemical. The conditions noted are these: compound at 10 μM; peptide substrate […]; read-out: TYK2 (% Inhibition at 10 μM).
In assay [3] the target is JAK2 (Homo sapiens (Human), UniProt O60674). Nature of the assay: JAK2 Radioactive Kinase Assay. The assay is classed as biochemical. The following applies: compound at 10 μM; substrate poly[Glu:Tyr] (4:1); read-out: JAK2 (% Inhibition at 10 μM). As for the experimental part: Peptide substrate, [[…]], (20 μM) was prepared in reaction buffer (20 mM Hepes pH 7.5, 10 mM MgCl2, 1 mM EGTA, 0.02% Brij35, 0.02 mg/mL BSA, 0.1 mM […], 2 mM DTT, 1% DMSO. TYK2 (Invitrogen) kinase was added, followed by compounds in DMSO. 33PATP was added to initiate the reaction in ATP at […]. Kinase reaction was incubated for 120 min at room temp and reactions were spotted onto P^81 ion exchange paper (Whatman #3698-915), and then washed extensively in 0.75% phosphoric acid, prior to reading the radioactivity counts. For JAK2 (Invitrogen) kinase assay the peptide substrate poly[Glu:Tyr] (4:1), 0.2 mg/mL was used, in the reaction carried out the same as for TYK2.
Chain of JAK2 (O60674 whole entry): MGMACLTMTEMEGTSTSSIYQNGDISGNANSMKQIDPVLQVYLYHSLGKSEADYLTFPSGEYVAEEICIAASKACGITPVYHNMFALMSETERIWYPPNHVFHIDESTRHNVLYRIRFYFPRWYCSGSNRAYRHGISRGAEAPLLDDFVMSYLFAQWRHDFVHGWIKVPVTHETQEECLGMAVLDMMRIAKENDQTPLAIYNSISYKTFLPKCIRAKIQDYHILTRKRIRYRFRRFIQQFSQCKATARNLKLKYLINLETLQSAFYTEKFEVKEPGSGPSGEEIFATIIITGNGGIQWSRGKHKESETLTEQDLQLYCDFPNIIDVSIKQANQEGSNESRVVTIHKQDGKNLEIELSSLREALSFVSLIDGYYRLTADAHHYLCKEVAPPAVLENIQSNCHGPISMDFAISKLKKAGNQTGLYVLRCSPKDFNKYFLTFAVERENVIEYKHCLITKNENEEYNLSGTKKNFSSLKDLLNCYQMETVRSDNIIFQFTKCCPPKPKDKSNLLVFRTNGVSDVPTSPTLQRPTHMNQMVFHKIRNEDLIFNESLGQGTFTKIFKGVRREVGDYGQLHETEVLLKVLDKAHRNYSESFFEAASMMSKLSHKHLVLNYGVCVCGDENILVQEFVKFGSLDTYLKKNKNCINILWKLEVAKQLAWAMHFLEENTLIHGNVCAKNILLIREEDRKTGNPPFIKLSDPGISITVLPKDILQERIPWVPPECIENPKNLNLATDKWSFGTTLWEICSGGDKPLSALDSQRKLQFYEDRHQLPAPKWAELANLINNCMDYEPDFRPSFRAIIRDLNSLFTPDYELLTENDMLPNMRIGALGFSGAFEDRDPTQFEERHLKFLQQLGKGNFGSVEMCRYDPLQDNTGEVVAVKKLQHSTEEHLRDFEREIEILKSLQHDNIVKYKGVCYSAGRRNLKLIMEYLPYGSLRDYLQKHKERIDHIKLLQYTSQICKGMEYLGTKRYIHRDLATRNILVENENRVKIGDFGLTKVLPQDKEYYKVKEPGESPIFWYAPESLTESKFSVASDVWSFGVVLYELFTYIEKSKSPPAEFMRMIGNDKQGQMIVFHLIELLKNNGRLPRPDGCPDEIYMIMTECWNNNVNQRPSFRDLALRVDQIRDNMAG

The test system of assay [4] is IL-12 induced STAT4 phosphorlyation mediated by TYK2/JAK2. The assay can be described thus: IL-12 Induced pSTAT4 in Human PBMC. The assay is classed as cell-based. The following applies: 0.5 h, 1.7 ng/mL IL-12 for 30 minutes. In a few lines: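 pSTAT4 and total STAT4 quantified by MSD in lysates of cryopreserved human PBMC after 30-minute stimulation with 1.7 ng/mL IL-12 (final). Compound was added 1 hr beforehand at 37° C, 0.1% DMSO final.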

Chain of TYK2 (P29597 whole entry): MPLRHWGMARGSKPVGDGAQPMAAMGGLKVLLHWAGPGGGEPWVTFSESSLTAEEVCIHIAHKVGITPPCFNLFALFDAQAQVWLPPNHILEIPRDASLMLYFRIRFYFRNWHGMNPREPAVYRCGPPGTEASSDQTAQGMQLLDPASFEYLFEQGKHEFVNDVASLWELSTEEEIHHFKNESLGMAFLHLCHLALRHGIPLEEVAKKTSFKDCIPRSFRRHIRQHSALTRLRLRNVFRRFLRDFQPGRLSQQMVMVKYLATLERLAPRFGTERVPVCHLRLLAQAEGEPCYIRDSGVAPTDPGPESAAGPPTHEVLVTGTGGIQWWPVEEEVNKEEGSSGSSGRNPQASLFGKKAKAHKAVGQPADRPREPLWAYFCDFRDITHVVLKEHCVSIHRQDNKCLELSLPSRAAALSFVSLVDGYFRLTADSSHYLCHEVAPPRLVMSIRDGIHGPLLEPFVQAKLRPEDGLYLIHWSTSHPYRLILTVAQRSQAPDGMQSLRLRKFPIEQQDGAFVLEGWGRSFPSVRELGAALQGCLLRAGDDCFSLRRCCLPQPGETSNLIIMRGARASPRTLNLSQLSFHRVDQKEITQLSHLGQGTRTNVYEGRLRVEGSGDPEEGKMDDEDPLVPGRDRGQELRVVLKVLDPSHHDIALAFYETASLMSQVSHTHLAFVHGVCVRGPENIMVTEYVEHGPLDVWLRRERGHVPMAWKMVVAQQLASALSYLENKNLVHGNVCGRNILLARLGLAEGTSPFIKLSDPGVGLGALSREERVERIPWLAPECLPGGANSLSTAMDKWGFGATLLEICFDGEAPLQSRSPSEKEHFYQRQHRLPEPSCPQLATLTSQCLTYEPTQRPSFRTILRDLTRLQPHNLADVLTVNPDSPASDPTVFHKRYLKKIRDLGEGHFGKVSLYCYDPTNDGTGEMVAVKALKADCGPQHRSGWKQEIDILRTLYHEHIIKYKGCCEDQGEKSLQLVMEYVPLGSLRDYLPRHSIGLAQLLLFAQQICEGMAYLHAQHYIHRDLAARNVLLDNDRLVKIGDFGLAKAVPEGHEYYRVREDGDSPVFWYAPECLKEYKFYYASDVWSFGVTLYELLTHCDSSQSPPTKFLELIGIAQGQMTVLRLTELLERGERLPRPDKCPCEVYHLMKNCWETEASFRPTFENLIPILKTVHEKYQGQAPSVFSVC
Chain of human TYK2 (JH2domain-pseudokinase) (P29597 556-888): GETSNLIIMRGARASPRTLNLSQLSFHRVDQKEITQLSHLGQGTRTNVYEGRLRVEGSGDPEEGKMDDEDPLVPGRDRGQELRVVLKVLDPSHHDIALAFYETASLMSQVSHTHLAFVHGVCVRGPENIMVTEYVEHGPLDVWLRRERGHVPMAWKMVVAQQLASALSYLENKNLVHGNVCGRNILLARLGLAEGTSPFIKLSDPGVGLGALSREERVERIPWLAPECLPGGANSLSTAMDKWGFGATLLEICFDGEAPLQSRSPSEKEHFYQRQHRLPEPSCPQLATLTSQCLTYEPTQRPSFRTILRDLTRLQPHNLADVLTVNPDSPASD

As to `CNc1cc(Nc2cccn(C3CC(F)(F)C3)c2=O)nc2c(C(=O)N[C@@H]3CC[C@H]3OC)cnn12` [Compound I-48, 5-((1-(3,3-Difluorocyclobutyl)-2-oxo-1,2-dihydropyridin-3-yl)amino)-N-((1R,2R)-2-methoxycyclobutyl)-7-(methylamino)pyrazolo[1,5-a]pyrimidine-3-carboxamide], in assay [1], the Kd is under 0.2 nM. Moreover, the inhibition at 10 µM in assay [2] and in assay [3] was under 50% throughout. In assay [4], this molecule came in with an IC50 of under 0.1 µM.
Regarding `CNc1cc(Nc2cccn(C3CCC[C@@](C)(O)C3)c2=O)nc2c(C(=O)NC3CC3)cnn12` (stereo in doubt) [Compound I-1, N-Cyclopropyl-5-((1-(3-hydroxy-3-methylcyclohexyl)-2-oxo-1,2-dihydropyridin-3-yl)amino)-7-(methylamino)pyrazolo[1,5-a]pyrimidine-3-carboxamide], the Kd in assay [1] is under 0.2 nM. In addition, the inhibition at 10 µM in assay [2] and in assay [3] was under 50% each time. The same molecule registered an IC50 in assay [4] of over 1 µM.

Usually Kd stands for the equilibrium constant for the complex coming apart. What is called inhibition is how much of the control response was suppressed. What is called IC50 is the concentration that gives 50% inhibition.
